# According to article PMC8327158, “PEGylated AdipoRon derivatives improve glucose and lipid metabolism under insulinopenic and high-fat diet conditions” (Journal of Lipid Research, 2021):
# System: HFD-fed wild-type mice
# Assay: Sphingolipid levels in tissues and serum of HFD-fed mice by mass spectrometry
# Assay type: in vivo, mouse
# Details: average ± SD
# Procedure: Six-week-old wild-type male mice were fed HFD for 4 weeks or 7 months In total, 5 mg/Kg of PBS, Adiporon, AdipoRonPEG5, AdipoRonPEG6HTL were injected twice a day for 5 days. After 5 days of treatment, systemic test is performed, and serum (Before and after treatment), subcutaneous, epididymal, liver, heart samples were harvested for qPCR and sphingolipid analysis.
# Flash-frozen tissue samples (~40 mg) in a borosilicate glass tube were quenched with 2.0 ml of organic extraction solvent (isopropanol: ethyl acetate, 15:85; v:v) and homogenized with a mechanical tissue disruptor. Immediately afterward, 20 μl of organic internal standard solution was added (Ceramide/Sphingoid Internal Standard Mixture II diluted 1:10 in ethanol). The mixture was vortexed for 20 s and sonicated in ultrasonic bath for 40 min at 40°C. The organic extract was allowed to reach room temperature, and 1.5 ml of HPLC water was added and a two-phase liquid-liquid extraction was performed. The upper phase was transferred to a new clean tube, and the lower aqueous phase containing the protein pellet was re-extracted with additional 2.0 ml of organic extraction solvent. The organic phases were combined and dried under nitrogen stream at 40°C. Dried extracts were stored at –80°C until analysis. For analysis of ceramides and sphingoid base species, the dried residues were reconstituted in 200 μl of methanol. Sphingomyelins required a sample dilution of 1:50 in methanol prior to analysis. Serum sphingolipids were extracted using a similar methodology requiring 25 μl of serum.
# Liver, subcutaneous adipose tissue, pancreas, pancreatic islets were initially homogenized in 500 μl of cold PBS using an ultrasonic probe disruptor and keeping the sample on ice during sonication. In total, 50 μl of aqueous homogenate was aliquoted for protein determination. In total, 400 μl of the lysate was immediately quenched in 2.0 ml of organic extraction solvent.
# In total, 5 μl of reconstituted samples was injected into an LC/MS/MS system for the analysis of ceramides and sphingoid bases, and 1 μl injection was required for the analysis of sphingomyelins. The system consisted of a Shimadzu LCMS-8050 triple-quadrupole mass spectrometer with the dual ion source operating in electrospray positive ionization mode. The mass spectrometer is coupled to a Shimadzu Nexera X2 UHPLC system equipped with three solvent delivery modules LC-30AD, three degassing units DGU-20A5R, an autosampler SIL-30ACMP, and a column oven CTO-20AC operating at 40°C (Shimadzu Scientific Instruments, Columbia, MD). Six sphingoid bases (d18:1 sphingosine, d18:1 sphingosine-1-phosphate, d18:1 deoxysphingosine, d18:0 sphinganine, d18:0 sphinganine-1-phosphate, d18:0 deoxysphinganine) and […] ceramide species and their metabolites (C16:0, C16:0 dihydroceramide, C16:0 glucosylceramide, C16:0 lactosylceramide, C16:0 sphingomyelin, C18:0, C18:0 dihydroceramide, C18:0 glucosylceramide, C18:0 sphingomyelin, C18:1, C20:0, C22:0, C22:0 glucosylceramide, C24:0, C24:0 dihydroceramide, C24:0 lactosylceramide, C24:0 sphingomyelin, C24:1, C24:1 dihydroceramide, C24:1 glucosylceramide, C24:1 sphingomyelin). Quantitative analysis of sphingolipids was achieved using selective reaction monitoring scan mode. Lipid separation was achieved by reverse phase LC on a 2.1 (i.d.) × 150 mm Ascentis Express C8, 2.7 micron (Supelco, Bellefonte, PA) column under gradient elution, using three different mobile phases: eluent A consisting of methanol/water/formic acid, 600/400/0.8, v/v/v with 5 mM ammonium formate, eluent B consisting of methanol/formic acid, 1,000/0.8, v/v with 5 mM ammonium formate, and eluent C consisting of CH3OH/CH2Cl2 350/650. The concentration of each metabolite was determined according to calibration curves using the peak-area ratio of analyte versus corresponding internal standard. Calibration curves were generated using serial dilutions of each target analyte.
# [1] = scWAT, 5 mg/kg twice a day 5 days
# [2] = serum at day 0 (before treatment)
# [3] = serum at day 5, 5 mg/kg twice a day 5 days
smiles,measurement,setting,value
O=C(COc1ccc(C(=O)c2ccccc2)cc1)NC1CCN(Cc2ccccc2)CC1 [AdipoRon],Hexosyl 20:0,[1],615610.3 ± 235007.39 pg/mg
same,Hexosyl 22:0,[1],6375434.2 ± 2782528.88 pg/mg
same,Hexosyl 24:0,[1],21878746.0 ± 11579620.12 pg/mg
same,Hexosyl 24:1,[1],11496554.3 ± 5647659.03 pg/mg
same,Lactosyl 16:0,[1],45792.6 ± 45798.33 pg/mg
same,Lactosyl 18:0,[1],0.0 ± 0.0 pg/mg
same,Lactosyl 22:0,[1],49816.7 ± 23898.61 pg/mg
same,Lactosyl 24:1,[1],86367.6 ± 22529.94 pg/mg
same,Lactosyl C24:0,[1],55460.5 ± 33843.98 pg/mg
same,Sphingaine1P,[1],35443.6 ± 15686.23 pg/mg
same,Sphinganine,[1],29337.6 ± 16700.68 pg/mg
same,Sphingosine,[1],49182.2 ± 32181.22 pg/mg
same,Sphingosine1P,[1],37612.5 ± 17941.43 pg/mg
same,dCer 16:0,[1],14580.7 ± 4393.04 pg/mg
same,dCer 18:0,[1],17597.9 ± 5214.49 pg/mg
same,dCer 20:0,[1],80869.1 ± 48824.3 pg/mg
same,dCer 22:0,[1],84488 ± 14825 pg/mg
same,dCer 24:0,[1],96632.5 ± 27938.2 pg/mg
same,dCer 24:1,[1],93338.7 ± 29289.58 pg/mg
same,Cer 14:0,[2],8402.0 ± 1707.95 pg/mg
same,Cer 16:0,[2],25341.1 ± 4464.54 pg/mg
same,Cer 18:0,[2],10061.4 ± 1406.12 pg/mg
same,Cer 18:1,[2],0 pg/mg
same,Cer 20:0,[2],144673.7 ± 32033.84 pg/mg
same,Cer 22:0,[2],2303972.0 ± 309633.22 pg/mg
same,Cer 24:0,[2],1443539.8 ± 157739.65 pg/mg
same,Cer 24:1,[2],986691.7 ± 101968.89 pg/mg
same,Cer 26:0,[2],10057.2 ± 2818.25 pg/mg
same,Cer 26:1,[2],0 pg/mg
same,DeoxySphinganie,[2],0.0 ± 0.0 pg/mg
same,Deoxysphingosine,[2],0.0 ± 0.0 pg/mg
same,Hexosyl 14:0,[2],2960.2 ± 601.74 pg/mg
same,Hexosyl 16:0,[2],3024488.2 ± 155463.13 pg/mg
same,Hexosyl 18:0,[2],47892.4 ± 4333.97 pg/mg
same,Hexosyl 20:0,[2],182974.2 ± 30498.44 pg/mg
same,Hexosyl 22:0,[2],12192915.9 ± 1475247.57 pg/mg
same,Hexosyl 24:0,[2],1341147.2 ± 57498.17 pg/mg
same,Hexosyl 24:1,[2],3535698.6 ± 346272.3 pg/mg
same,Lactosyl 16:0,[2],94073.6 ± 8945.71 pg/mg
same,Lactosyl 18:0,[2],0.0 ± 0.0 pg/mg
same,Lactosyl 22:0,[2],60785.8 ± 9718.01 pg/mg
same,Lactosyl 24:1,[2],85880.2 ± 22412.15 pg/mg
same,Lactosyl C24:0,[2],103502.4 ± 17366.51 pg/mg
same,Sphingaine1P,[2],250934.3 ± 36218.42 pg/mg
same,Sphinganine,[2],45226.5 ± 8665.07 pg/mg
same,Sphingosine,[2],43193.4 ± 8183.0 pg/mg
same,Sphingosine1P,[2],774207.2 ± 25661.64 pg/mg
same,dCer 16:0,[2],16437.5 ± 2669.42 pg/mg
same,dCer 18:0,[2],10213.1 ± 2375.68 pg/mg
same,dCer 20:0,[2],3716.7 ± 0.0 pg/mg
same,dCer 22:0,[2],335078.3 ± 58715.16 pg/mg
same,dCer 24:0,[2],212159.3 ± 42613.52 pg/mg
same,dCer 24:1,[2],111963.9 ± 12779.64 pg/mg
same,Cer 14:0,[3],9165.8 ± 853.97 pg/mg
same,Cer 16:0,[3],17212.8 ± 1488.18 pg/mg
same,Cer 18:0,[3],8049.1 ± 1033.29 pg/mg
same,Cer 18:1,[3],0 pg/mg
same,Cer 20:0,[3],135037.6 ± 17909.21 pg/mg
same,Cer 22:0,[3],1736100.3 ± 185474.31 pg/mg
same,Cer 24:0,[3],1412623.3 ± 289722.52 pg/mg
same,Cer 24:1,[3],771667.5 ± 65564.62 pg/mg
same,Cer 26:0,[3],11959.9 ± 2614.25 pg/mg
same,Cer 26:1,[3],0 pg/mg
same,DeoxySphinganie,[3],0.0 ± 0.0 pg/mg
same,Deoxysphingosine,[3],0.0 ± 0.0 pg/mg
same,Hexosyl 14:0,[3],2960.2 ± 601.74 pg/mg
same,Hexosyl 16:0,[3],3736352.2 ± 191696.45 pg/mg
same,Hexosyl 18:0,[3],63748.7 ± 18002.6 pg/mg
same,Hexosyl 20:0,[3],245486.5 ± 74132.09 pg/mg
same,Hexosyl 22:0,[3],9390882.1 ± 688490.25 pg/mg
same,Hexosyl 24:0,[3],1430423.2 ± 157556.06 pg/mg
same,Hexosyl 24:1,[3],3036231.9 ± 367214.43 pg/mg
same,Lactosyl 16:0,[3],94265.2 ± 16983.56 pg/mg
same,Lactosyl 18:0,[3],0.0 ± 0.0 pg/mg
same,Lactosyl 22:0,[3],58253.0 ± 5503.82 pg/mg
same,Lactosyl 24:1,[3],124049.2 ± 19300.14 pg/mg
same,Lactosyl C24:0,[3],122340.7 ± 11760.71 pg/mg
same,Sphingaine1P,[3],423112.6 ± 48511.44 pg/mg
same,Sphinganine,[3],11725.4 ± 1939.02 pg/mg
same,Sphingosine,[3],18235.7 ± 1946.06 pg/mg
same,Sphingosine1P,[3],1139765.2 ± 69403.83 pg/mg
same,dCer 16:0,[3],7198.9 ± 1199.82 pg/mg
same,dCer 18:0,[3],4034.8 ± 845.83 pg/mg
same,dCer 20:0,[3],2973.3 ± 1017.85 pg/mg
same,dCer 22:0,[3],174957.8 ± 18878.67 pg/mg
same,dCer 24:0,[3],105210.1 ± 6589.37 pg/mg
same,dCer 24:1,[3],49553.1 ± 7051.68 pg/mg
